Measurements: patent US20150282486A1, “RICE SEED TREATMENT COMPOSITION” (SYNGENTA PARTICIPATIONS AG, priority 2014, published 2015)

Assays:
[1] = test system: rice seed variety CL 151; test: Greenhouse trial of zinc-treated rice seed in Zn deficient soil mix: germination rate; type: in vivo; settings: plus insecticide/fungicide mixture, Zn deficient potting mix 1.97 ppm Zn
From the text: (§1) For the inventive composition, ZnEDTA (in the form of Dissolvine E-Zn-15 having 3% free zinc, Akzo Nobel, IL., USA) was applied as a 20% w/w aqueous solution at rates of 1.18 1.47 and 1.76 g ZnEDTA/kg seed. This was accomplished by using 8, 10 or 12 fl oz per cwt.
(§2) For the first comparative composition, ZnSO4 was applied as a 24.7% solution at a rate of 1.90 g ZnSO4/kg seed (in the form of ZINC PLUS having 10% free zinc, DeltAg, MS, USA). This was accomplished by using 10 fl oz per cwt.
(§3) For the second comparative composition, ZnO was applied as a 32.50% aqueous suspension at a rate of 2.00 g ZnO/kg seed (in the form of ZINCHE ST having 26% free zinc, Drexel Chemical Co, TN, USA). This was accomplished by using 8 fl oz per cwt.
(§4) This was done by preparing a mixture of each zinc-containing compound with the insecticide/fungicide mixture and adding water to make a total of 25 fl oz per ctw (thiamethoxam at 1.80 g/kg seed, fludioxonil at 0.015 g/kg seed, azoxystrobin at 0.07 g/kg seed, metalaxyl-M at 0.09 g/kg seed and sedaxane at 0.01 g/kg seed; commercial products available as e.g. CRUISER MAXX and VIBRANCE, both Syngenta Crop Protection, NC, USA). Also evaluated were untreated control and seeds having only the conventional insecticide and fungicide treatment.
(§5) For all test groups, one (1) kg batches of rice seed variety CL 151 (Clearfield Seed, Horizon Ag, TN, USA) were treated on a Hege seed treater (Wintersteiger AG, Austria) using a standard protocol. The seeds were allowed to dry.
Standard commercial greenhouse containers, 10 cm diameter by 9 cm deep, were filled with 350 cc of a rooting media mix consisting of 33% (v/v) Zn deficient soil collected in Arkansas, USA and then sterilized in an autoclave and 66% (v/v) commercial planting mix (NB peat, Fafard, MA, USA). Analysis of the potting mix confirmed that the zinc levels were low, at 1.97 ppm and pH levels were <7. […]
Ten days after planting (10 DAP) a drip irrigation emitter was installed on each pot. […] Germination rates were recorded and at 11 DAP rice seedlings were thinned to 5 plants per pot. […]

[2] = test system: rice seed variety CL 151; test: Greenhouse trial of zinc-treated rice seed in Zn deficient soil mix: total zinc uptake in dry above ground plant tissue; type: in vivo; settings: dry above ground tissue harvested 29 DAP, plus insecticide/fungicide mixture
From the text: as §1, §2, §3, §4, §5
Standard commercial greenhouse containers, 10 cm diameter by 9 cm deep, were filled with 350 cc of a rooting media mix consisting of 33% (v/v) Zn deficient soil collected in Arkansas, USA and then sterilized in an autoclave and 66% (v/v) commercial planting mix (NB peat, Fafard, MA, USA). Analysis of the potting mix confirmed that the zinc levels were low, at 1.97 ppm and pH levels were <7.
Prior to planting the soil was moistened with 200 ml tap water per pot. Eight seeds were sown per pot by placing them on soil surface then lightly covering with 0.5 cm of loose peat. […] Pots were transferred to greenhouse and maintained at 30/24° C. day/night temperature with 16 hours of supplemental high pressure sodium light. All pots were lightly watered manually every 2 to 3 days to prevent dehydration of the germination zone.
Ten days after planting (10 DAP) a drip irrigation emitter was installed on each pot. The irrigation system was set to deliver 100 ml of tap water each morning and again each evening. Germination rates were recorded and at 11 DAP rice seedlings were thinned to 5 plants per pot. By 17 DAP rice plants were in the V3 growth stage. At 18 DAP nitrogen fertilizer (urea) was added to the irrigation water at 200 ppm for the duration of trial. At 22 DAP rice plants were in the V4 growth stage with first tiller forming.
At 29 DAP rice plants were in the V5 growth stage with 3 tillers. The above ground plant tissue was harvested and placed in paper bags. Bags were placed in an oven set at 100° C. for 72 hours to dry. The dry tissue was removed from the bags and weighed. Samples of the dry tissue were analyzed for total zinc uptake (MicroMacro International, Inc. Labs, GA, USA).

[3] = test system: rice seed; settings: 1.4 g ZnEDTA/kg rice seed; cited from earlier work

With O=C(O)CN(CCN(CC(=O)O)CC(=O)O)CC(=O)O.[Zn] [ZnEDTA, zinc ethylenediaminetetraacetic acid] the “Germination rate (%)” value ([1]; 1.47 g Zn complex/kg seed) was 45%, the “Zinc uptake (ppm)” value ([2]; 1.18 g Zn complex/kg seed) was 275.47 ppm and the “Zinc uptake (ppm)” value ([2]; 1.47 g Zn complex/kg seed) was 304.74 ppm. For the same compound, the “Zinc uptake (ppm)” value ([2]; 1.76 g Zn complex/kg seed) was 316.00 ppm and the “Outcome of rice seed treatment” value [3] was “not successful”.

With [O]=[Zn] [ZnO, Zinc oxide, reference compound] the “Germination rate (%)” value ([1]; 2.00 g Zn complex/kg seed) was 42% and the “Zinc uptake (ppm)” value ([2]; 2.00 g Zn complex/kg seed) was 253.65 ppm.

With O=S(=O)([O-])[O-].[Zn+2] [ZnSO4, Zinc sulfate, reference compound] the “Germination rate (%)” value ([1]; 1.90 g Zn complex/kg seed) was 43% and the “Zinc uptake (ppm)” value ([2]; 1.90 g Zn complex/kg seed) was 237.50 ppm.
